For this assay, the target named is EGFR (human) (UniProt P00533).
Chain of EGFR (human) (P00533 whole entry, looked up): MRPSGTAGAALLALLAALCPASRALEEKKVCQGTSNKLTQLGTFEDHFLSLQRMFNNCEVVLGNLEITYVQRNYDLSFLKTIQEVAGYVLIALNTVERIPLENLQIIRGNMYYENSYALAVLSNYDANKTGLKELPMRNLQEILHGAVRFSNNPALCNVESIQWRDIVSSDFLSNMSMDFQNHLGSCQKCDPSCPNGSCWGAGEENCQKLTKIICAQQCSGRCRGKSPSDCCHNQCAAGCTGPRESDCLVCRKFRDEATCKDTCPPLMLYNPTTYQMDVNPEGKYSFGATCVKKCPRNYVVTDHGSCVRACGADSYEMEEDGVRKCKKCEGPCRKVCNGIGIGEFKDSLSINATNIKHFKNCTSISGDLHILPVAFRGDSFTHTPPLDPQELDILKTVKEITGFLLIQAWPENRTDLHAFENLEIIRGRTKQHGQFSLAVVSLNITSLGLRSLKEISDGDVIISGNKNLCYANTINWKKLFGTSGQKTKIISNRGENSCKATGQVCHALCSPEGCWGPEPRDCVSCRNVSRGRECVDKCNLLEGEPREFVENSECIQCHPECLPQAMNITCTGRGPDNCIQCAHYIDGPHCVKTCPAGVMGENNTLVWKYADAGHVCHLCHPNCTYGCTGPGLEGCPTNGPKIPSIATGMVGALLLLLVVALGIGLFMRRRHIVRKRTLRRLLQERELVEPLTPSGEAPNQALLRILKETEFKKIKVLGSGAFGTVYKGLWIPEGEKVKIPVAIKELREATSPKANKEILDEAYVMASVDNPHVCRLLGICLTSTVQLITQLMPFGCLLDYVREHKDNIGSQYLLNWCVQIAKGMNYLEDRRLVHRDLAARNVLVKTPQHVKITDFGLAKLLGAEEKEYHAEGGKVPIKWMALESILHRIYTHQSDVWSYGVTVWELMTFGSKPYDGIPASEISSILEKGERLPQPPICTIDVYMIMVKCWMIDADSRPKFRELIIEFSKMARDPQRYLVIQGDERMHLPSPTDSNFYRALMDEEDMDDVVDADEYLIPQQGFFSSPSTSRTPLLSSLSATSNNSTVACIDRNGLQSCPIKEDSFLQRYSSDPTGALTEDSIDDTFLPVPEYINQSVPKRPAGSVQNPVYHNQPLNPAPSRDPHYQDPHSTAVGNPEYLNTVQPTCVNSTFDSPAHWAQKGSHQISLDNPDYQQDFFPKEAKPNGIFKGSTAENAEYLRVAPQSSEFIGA
`CCc1nc(-c2cccc(NS(=O)(=O)c3ccccc3)c2)c(-c2ccnc(Nc3ccc(OC)c(N4CCN(CCS(C)(=O)=O)CC4)c3)n2)s1`: the IC50 (as a rule, the point on the concentration scale where inhibition reaches its midpoint) was 100 to 1000 nM.

Consider `CC(C)c1nc(-c2cccc(NS(=O)(=O)c3c(F)cccc3F)c2)c(-c2ccnc(Nc3ccc(N4CCCNCC4)nc3)n2)s1`, for which the IC50 is less than 100 nM.

On to `CC(C)c1nc(-c2cccc(NS(=O)(=O)c3c(F)cccc3F)c2)c(-c2ccnc(Nc3ccc(N4CCOCC4)c(C(=O)O)c3)n2)s1`, for which the IC50 was 100 to 1000 nM.

Take `CS(=O)(=O)CCN1CCN(c2ccc(Nc3nccc(-c4oc(N5CCCC5)nc4-c4cccc(NS(=O)(=O)c5c(F)cccc5F)c4F)n3)cc2F)CC1`: the IC50 fell in the range of 100 to 1000 nM.

The compound `CC(C)c1nc(-c2ccc(F)c(NS(=O)(=O)c3c(F)cccc3F)c2)c(-c2ccnc(Nc3ccc(N4CCOCC4)nc3)n2)s1` returned a half-inhibitory concentration (IC50) of 100 to 1000 nM.

The compound `CC(C)c1nc(-c2ccc(F)c(NS(=O)(=O)c3c(F)cccc3F)c2)c(-c2ccnc(Nc3ccnc(N4CCOCC4)c3)n2)s1` came in with a half-maximal inhibitory concentration (IC50) of 100 to 1000 nM.

For the compound `COc1cc(OCCN2CCOCC2)c(C)cc1Nc1nccc(-c2sc(C(C)C)nc2-c2cccc(NS(=O)(=O)c3c(F)cccc3F)c2F)n1`, the IC50 was 100 to 1000 nM.

Regarding `COc1cc(N2CCN(CCS(C)(=O)=O)CC2)c(C)cc1Nc1nccc(-c2sc(C3CCOCC3)nc2-c2cccc(NS(=O)(=O)c3c(F)cccc3F)c2F)n1`, the IC50 was less than 100 nM.

In turn, `COc1cc(N2CCN(CCF)CC2)ccc1Nc1nccc(-c2sc(C(C)C)nc2-c2cccc(NS(=O)(=O)c3c(F)cccc3F)c2)n1` gave an IC50 of 100 to 1000 nM.

Consider `CC(=O)N1CCc2cc(Nc3nccc(-c4sc(C(C)C)nc4-c4cccc(NS(=O)(=O)c5ccccc5)c4)n3)ccc21`, for which the IC50 lay in the range of 100 to 1000 nM.

For `COc1cc(N2CCN(CCS(C)(=O)=O)CC2)c(C)cc1Nc1nccc(-c2sc(C(C)C)nc2-c2cccc(NS(=O)(=O)c3cccnc3)c2)n1`, the IC50 fell in the range of 100 to 1000 nM.

`CC(C)c1nc(-c2cccc(NS(=O)(=O)c3c(F)cccc3F)c2)c(-c2ccnc(Nc3ccc(N4CCN(C(C)C)CC4)cc3O)n2)s1` showed an IC50 of 100 to 1000 nM.

In turn, `COc1cc(N2CCN(CCS(C)(=O)=O)CC2)c(C)cc1Nc1nccc(-c2sc(C(C)C)nc2-c2cccc(NS(=O)(=O)c3c(F)cccc3F)c2)n1` showed an IC50 of less than 100 nM.

In turn, `Cc1ccc(-c2nc(C(C)C)sc2-c2ccnc(Nc3ccc(N4CCOCC4)nc3)n2)cc1NS(=O)(=O)c1c(F)cccc1F` displayed an IC50 of 100 to 1000 nM.

In turn, `CC(C)c1nc(-c2ccc(F)c(NS(=O)(=O)c3ccccc3C#N)c2)c(-c2ccnc(Nc3ccc(N4CCOCC4)nc3)n2)s1` registered an IC50 of 100 to 1000 nM.

With `CN1CCN(c2nc(-c3ccc(F)c(NS(=O)(=O)c4c(F)cccc4F)c3)c(-c3ccnc(Nc4ccc(N5CCOCC5)nc4)n3)s2)CC1`, the IC50 lay in the range of 100 to 1000 nM.

In turn, `Cc1cc(N2CCC(N3CCCCC3)CC2)ccc1Nc1nccc(-c2sc(C(C)C)nc2-c2cccc(NS(=O)(=O)c3c(F)cccc3F)c2)n1` yielded an IC50 of less than 100 nM.

As for `CC(C)c1nc(-c2cccc(NS(=O)(=O)c3ccccc3)c2)c(-c2ccnc(Nc3ccc(F)c(N4CCN(CCS(C)(=O)=O)CC4)c3)n2)s1`, the IC50 fell in the range of 100 to 1000 nM.

In turn, `COc1ccc(Nc2nccc(-c3sc(C(C)C)nc3-c3cccc(NS(=O)(=O)c4c(F)cccc4F)c3)n2)cc1N(C)C` displayed an IC50 of less than 100 nM.

For the compound `CC(=O)N1CCN(c2ccc(Nc3nccc(-c4sc(C(C)C)nc4-c4cccc(NS(=O)(=O)C5CCCCC5)c4)n3)cn2)CC1`, the IC50 is 100 to 1000 nM.

`Cc1cc(Nc2nccc(-c3sc(C(C)C)nc3-c3ccc(F)c(NS(=O)(=O)c4c(F)cccc4F)c3)n2)ccn1`: the IC50 lay in the range of 100 to 1000 nM.

`CCNc1nc(-c2ccc(F)c(NS(=O)(=O)c3c(F)cccc3F)c2)c(-c2ccnc(Nc3ccc(N4CCOCC4)nc3)n2)s1`: the IC50 lay in the range of 100 to 1000 nM.

Consider `O=S1(=O)Cc2ccc(Nc3nccc(-c4sc(N5CCOCC5)nc4-c4cccc(NS(=O)(=O)c5c(F)cccc5F)c4F)n3)cc2C1`, for which the IC50 is 100 to 1000 nM.

The compound `COc1cc(N2CCN(CCS(C)(=O)=O)CC2)c(C)cc1Nc1nccc(-c2sc(CC(C)C)nc2-c2cccc(NS(=O)(=O)c3c(F)cccc3F)c2)n1` came in with an IC50 of less than 100 nM.

Turning to `CC(=O)N1CCN(c2ccc(Nc3nccc(-c4sc(C(C)C)nc4-c4cccc(NS(=O)(=O)c5cccc(F)c5)c4)n3)cn2)CC1`, the IC50 lay in the range of 100 to 1000 nM.

`COc1ccc(Nc2nccc(-c3sc(C(C)C)nc3-c3cccc(NS(=O)(=O)Cc4ccccc4)c3)n2)cc1N1CCN(CCS(C)(=O)=O)CC1` registered an IC50 of less than 100 nM.

Consider `CN1CCC(c2nc(-c3ccc(F)c(NS(=O)(=O)c4c(F)cccc4F)c3)c(-c3ccnc(Nc4ccc(N5CCOCC5)nc4)n3)s2)CC1`, for which the IC50 fell in the range of 100 to 1000 nM.

Regarding `Nc1nc(-c2ccc(F)c(NS(=O)(=O)c3c(F)cccc3F)c2)c(-c2ccnc(Nc3ccc(N4CCOCC4)nc3)n2)s1`, the IC50 lay within 100 to 1000 nM.

In the case of `COc1cc(N2CCN(CCS(C)(=O)=O)CC2)c(C)cc1Nc1nccc(-c2sc(C3CCOCC3)nc2-c2cccc(NS(=O)(=O)c3c(F)cccc3F)c2)n1`, the IC50 is less than 100 nM.

As for `COc1ccc(S(C)(=O)=O)cc1Nc1nccc(-c2sc(C(C)C)nc2-c2cccc(NS(=O)(=O)c3c(F)cccc3F)n2)n1`, the IC50 lay within 100 to 1000 nM.

`CCc1nc(-c2ccc(F)c(NS(=O)(=O)c3ccccc3)c2)c(-c2ccnc(Nc3ccc(N4CCN(C(C)C)CC4)cc3OC)n2)s1` had an IC50 of 100 to 1000 nM.

`COc1cc(N2CCN(CCS(C)(=O)=O)CC2)c(C)cc1Nc1nccc(-c2sc(C(C)C)nc2-c2cccc(NS(=O)(=O)c3ccco3)c2)n1` yielded an IC50 of less than 100 nM.

Regarding `COc1cc(Nc2nccc(-c3sc(C(C)C)nc3-c3cccc(NS(=O)(=O)c4c(F)cccc4F)c3)n2)cc(OC)c1OC1CCN(CCS(C)(=O)=O)CC1`, the half-inhibitory concentration (IC50) was less than 100 nM.

In the case of `COc1cc(N2CCN(CCS(C)(=O)=O)CC2)c(C)cc1Nc1nccc(-c2sc(C(C)C)nc2-c2cc(NS(=O)(=O)c3c(F)cccc3F)ccc2F)n1`, the IC50 lay in the range of 100 to 1000 nM.

In the case of `CC(C)c1nc(-c2cc(F)cc(NS(=O)(=O)c3c(F)cccc3F)c2)c(-c2ccnc(Nc3ccc(N4CCOCC4)nc3)n2)s1`, the IC50 fell in the range of 100 to 1000 nM.

Turning to `CC(=O)N1CCN(c2ccc(Nc3nccc(-c4sc(C(C)C)nc4-c4cccc(NS(=O)(=O)c5cn(C)cn5)c4)n3)cn2)CC1`, the IC50 was less than 100 nM.

Consider `CN(C)c1nc(-c2ccc(F)c(NS(=O)(=O)c3c(F)cccc3F)c2)c(-c2ccnc(Nc3ccc(N4CCN(S(C)(=O)=O)CC4)nc3)n2)s1`, for which the IC50 lay in the range of 100 to 1000 nM.

On to `O=S(=O)(Nc1cc(-c2nc(N3CCOCC3)sc2-c2ccnc(Nc3ccc(N4CCOCC4)nc3)n2)ccc1F)c1c(F)cccc1F`, for which the IC50 was in the range of 100 to 1000 nM.

The compound `COc1cc(N2CCN(CCS(C)(=O)=O)CC2)c(C)cc1Nc1nccc(-c2sc(N)nc2-c2cccc(NS(=O)(=O)c3c(F)cccc3F)c2)n1` showed an IC50 of 100 to 1000 nM.

Compound `CC(C)c1nc(-c2cccc(NS(=O)(=O)c3c(F)cccc3F)c2)c(-c2ccnc(Nc3cccc(N4CCN(C)CC4)c3)n2)s1` returned an IC50 of less than 100 nM.

For `CN(C)c1nc(-c2ccc(F)c(NS(=O)(=O)c3c(F)cccc3F)c2)c(-c2ccnc(Nc3ccc(N4CCOCC4)nc3)n2)s1`, the IC50 lay in the range of 100 to 1000 nM.

Take `COc1cc(OC2CCN(CCS(C)(=O)=O)CC2)c(C)cc1Nc1nccc(-c2sc(C(C)C)nc2-c2cccc(NS(=O)(=O)c3c(F)cccc3F)c2)n1`: the IC50 is less than 100 nM.

Compound `O=S(=O)(Nc1cc(-c2nc(N3CCOCC3)sc2-c2ccnc(Nc3ccc4c(c3)OCCO4)n2)ccc1F)c1c(F)cccc1F` yielded an IC50 of 100 to 1000 nM.

The compound `CC(C)c1nc(-c2cccc(NS(=O)(=O)c3c(F)cccc3F)c2)c(-c2ccnc(Nc3ccc(N4CCOCC4)c(F)c3)n2)o1` showed a 50% inhibitory concentration (IC50) of 100 to 1000 nM.

On to `COc1cc2c(cc1Nc1nccc(-c3sc(C(C)C)nc3-c3cccc(NS(=O)(=O)c4c(F)cccc4F)c3)n1)N(C(=O)CN(C)C)CC2`, for which the IC50 was 100 to 1000 nM.

Turning to `O=S(=O)(Nc1cc(-c2nc(N3CCCC3)sc2-c2ccnc(Nc3ccc(N4CCOCC4)nc3)n2)ccc1F)c1c(F)cccc1F`, the IC50 was 100 to 1000 nM.

For the compound `CC(C)c1nc(-c2cccc(NS(=O)(=O)c3c(F)cccc3F)c2)c(-c2ccnc(Nc3ccc(N4CCN(CCO)CC4)nc3)n2)s1`, the IC50 was less than 100 nM.

For the compound `COc1cc(N2CCC(N3CCN(CCS(C)(=O)=O)CC3)CC2)ccc1Nc1nccc(-c2sc(C(C)C)nc2-c2cccc(NS(=O)(=O)c3c(F)cccc3F)c2)n1`, the IC50 is less than 100 nM.

In turn, `O=S(=O)(Nc1cccc(-c2nc(N3CCCC3)sc2-c2ccnc(Nc3ccc(N4CCN(CCF)CC4)c(F)c3)n2)c1)c1c(F)cccc1F` yielded an IC50 of less than 100 nM.

In turn, `CCNc1nc(-c2cccc(NS(=O)(=O)c3c(F)cccc3F)c2)c(-c2ccnc(Nc3ccc(N4CCOCC4)nc3)n2)s1` yielded an IC50 of 100 to 1000 nM.

Take `COc1cc(CCN2CCCCC2)c(F)cc1Nc1nccc(-c2sc(C(C)C)nc2-c2cccc(NS(=O)(=O)c3c(F)cccc3F)c2)n1`: the IC50 fell in the range of 100 to 1000 nM.

`COc1cc(N2CCN(CCS(C)(=O)=O)CC2)c(C)cc1Nc1nccc(-c2oc(N3CCCC3)nc2-c2cccc(NS(=O)(=O)c3c(F)cccc3F)c2)n1`: the IC50 lay in the range of 100 to 1000 nM.

`COc1cc(N2CCN(CCS(C)(=O)=O)CC2)c(C)cc1Nc1nccc(-c2sc(C)nc2-c2cccc(NS(=O)(=O)c3c(F)cccc3F)c2)n1`: the IC50 is less than 100 nM.

Compound `CCOc1ccc(Nc2nccc(-c3sc(C(C)C)nc3-c3ccc(F)c(NS(=O)(=O)c4c(F)cccc4F)c3)n2)cc1N1CCN(CCF)CC1` returned an IC50 of less than 100 nM.

`CC(C)c1nc(-c2cccc(NS(=O)(=O)c3ccccc3)c2)c(-c2ccnc(Nc3ccc(N4CCOCC4)nc3)n2)s1` had an IC50 of 100 to 1000 nM.

In the case of `COc1cc(N2CCN(CCS(C)(=O)=O)CC2)c(C)cc1Nc1nccc(-c2scnc2-c2cccc(NS(=O)(=O)c3c(F)cccc3F)c2)n1`, the IC50 was less than 100 nM.

Take `COc1cc(N2CCN(CCS(C)(=O)=O)CC2)c(C)cc1Nc1nccc(-c2sc(C(C)C)nc2-c2cccc(NS(=O)(=O)c3c(F)cccc3F)n2)n1`: the IC50 is less than 100 nM.

`Nc1nc(-c2cccc(NS(=O)(=O)c3c(F)cccc3F)c2)c(-c2ccnc(Nc3ccc(N4CCOCC4)nc3)n2)s1` had an IC50 of 100 to 1000 nM.

For `CC(C)c1nc(-c2cccc(NS(=O)(=O)c3cccnc3)c2)c(-c2ccnc(Nc3ccc(N4CCOCC4)nc3)n2)s1`, the half-maximal inhibitory concentration (IC50) lay in the range of 100 to 1000 nM.

`CC(C)c1nc(-c2cccc(NS(=O)(=O)c3c(F)cccc3F)c2)c(-c2ccnc(Nc3ccc(N4CCCN(CCS(C)(=O)=O)CC4)nc3)n2)s1` had an IC50 of 100 to 1000 nM.

With `CC(C)c1nc(-c2cccc(NS(=O)(=O)c3c(F)cccc3F)c2)c(-c2ccnc(Nc3ccc(N4CCN(CCS(C)(=O)=O)CC4)c(F)c3)n2)s1`, the concentration for half-maximal inhibition (IC50) lay in the range of 100 to 1000 nM.
